These compounds were tested against P2X7 (Homo sapiens (Human), UniProt Q99572) (assay: P2X7 antagonism in human PBMCs (LPS + Bz-ATP induced IL-1β release, ELISA)). Details: compound 1 μM, LPS 30 ng/ml, Bz-ATP 0.5 mM.
Format: cell-based
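Further: PBMCs from donor human blood, with a further 1.5 h incubation of the cells in the assay.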

Chain of P2X7 (Q99572 whole entry): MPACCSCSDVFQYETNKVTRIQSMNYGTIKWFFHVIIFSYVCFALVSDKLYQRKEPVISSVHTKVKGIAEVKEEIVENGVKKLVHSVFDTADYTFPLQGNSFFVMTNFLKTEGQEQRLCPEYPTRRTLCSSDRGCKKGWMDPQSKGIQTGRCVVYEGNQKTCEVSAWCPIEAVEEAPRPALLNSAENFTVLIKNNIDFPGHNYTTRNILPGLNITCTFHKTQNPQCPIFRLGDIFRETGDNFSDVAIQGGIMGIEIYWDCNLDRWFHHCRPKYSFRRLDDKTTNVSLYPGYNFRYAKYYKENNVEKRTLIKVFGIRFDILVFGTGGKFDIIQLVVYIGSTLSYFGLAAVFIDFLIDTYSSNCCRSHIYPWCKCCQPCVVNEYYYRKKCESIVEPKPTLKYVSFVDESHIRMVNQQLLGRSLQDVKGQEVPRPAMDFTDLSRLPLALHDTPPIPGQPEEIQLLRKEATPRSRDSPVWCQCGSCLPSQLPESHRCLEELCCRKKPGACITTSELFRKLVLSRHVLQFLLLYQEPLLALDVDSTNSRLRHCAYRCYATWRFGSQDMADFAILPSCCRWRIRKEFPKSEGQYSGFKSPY

Compound | PBMC 1 μM (% control)
O=C(c1cccc(Cl)c1Cl)N1CCc2c(ncn2-c2ccccc2)C1 [Example 3, (2,3-Dichlorophenyl)(1-phenyl-6,7-dihydro-1H-imidazo[4,5-c]pyridin-5(4H)-yl)methanone] | 23.0
O=C(c1cccc(C(F)(F)F)c1Cl)N1CCc2c(ncn2-c2cc(F)cc(F)c2)C1 [Example 7, (2-Chloro-3-(trifluoromethyl)phenyl)(1-(3,5-difluorophenyl)-6,7-dihydro-1H-imidazo[4,5-c]pyridin-5(4H)-yl)methanone] | 98.7
O=C(c1cccc(C(F)(F)F)c1Cl)N1CCc2ncn(-c3ccccn3)c2C1 [Example 8, (2-Chloro-3-(trifluoromethyl)phenyl)(3-(pyridin-2-yl)-6,7-dihydro-3H-imidazo[4,5-c]pyridin-5(4H)-yl)methanone] | 83.1
O=C(c1cccc(Cl)c1Cl)N1CCc2ncn(-c3ccccn3)c2C1 [Example 9, (2,3-Dichlorophenyl)(3-(pyridin-2-yl)-6,7-dihydro-3H-imidazo[4,5-c]pyridin-5(4H)-yl)methanone] | 83.7
O=C(c1cccc(C(F)(F)F)c1Cl)N1CCc2ncn(-c3cnccn3)c2C1 [Example 10, (2-Chloro-3-(trifluoromethyl)phenyl)(3-(pyrazin-2-yl)-6,7-dihydro-3H-imidazo[4,5-c]pyridin-5(4H)-yl)methanone] | 76.5
CC1c2ncn(-c3ccccc3)c2CCN1C(=O)c1cccc(C(F)(F)F)c1Cl (stereo not shown) [Example 12, (2-Chloro-3-(trifluoromethyl)phenyl)(4-methyl-1-phenyl-6,7-dihydro-1H-imidazo[4,5-c]pyridin-5(4H)-yl)methanone] | 11.2
CC1c2ncn(-c3ccccn3)c2CCN1C(=O)c1cccc(C(F)(F)F)c1Cl (stereo not shown) [Example 17, (2-Chloro-3-(trifluoromethyl)phenyl)(4-methyl-1-(pyridin-2-yl)-6,7-dihydro-1H-imidazo[4,5-c]pyridin-5(4H)-yl)methanone] | 6.5
CC1c2ncn(-c3ccc(F)cc3)c2CCN1C(=O)c1cccc(C(F)(F)F)c1Cl (stereo not shown) [Example 18, (2-Chloro-3-(trifluoromethyl)phenyl)(1-(4-fluorophenyl)-4-methyl-6,7-dihydro-1H-imidazo[4,5-c]pyridin-5(4H)-yl)methanone] | 5.3

Same assay, conditions: compound 10 μM, LPS 30 ng/ml, Bz-ATP 0.5 mM

Compound | PBMC 10 μM (% control)
Cc1c(C(=O)N2Cc3nnn(-c4ncc(F)cn4)c3C[C@H]2C)cccc1C(F)(F)F (single isomer, unassigned) [Example 207, (6R*)-1-(5-Fluoropyrimidin-2-yl)-6-methyl-5-{[2-methyl-3-(trifluoromethyl)phenyl]carbonyl}-4,5,6,7-tetrahydro-1H-[1,2,3]triazolo[4,5-c]pyridine] | 45.0
Cc1c(C(=O)N2Cc3nnn(-c4ncc(F)cn4)c3C[C@@H]2C)cccc1C(F)(F)F (single isomer, unassigned) [Example 208, (6S*)-1-(5-Fluoropyrimidin-2-yl)-6-methyl-5-{[2-methyl-3-(trifluoromethyl)phenyl]carbonyl}-4,5,6,7-tetrahydro-1H-[1,2,3]triazolo[4,5-c]pyridine] | 20.9
C[C@@H]1Cc2c(nnn2-c2cnccn2)CN1C(=O)c1cccc(C(F)(F)F)c1Cl (single isomer, unassigned) [Example 211, (6R*)-5-{[2-Chloro-3-(trifluoromethyl)phenyl]carbonyl}-6-methyl-1-pyrazin-2-yl-4,5,6,7-tetrahydro-1H-[1,2,3]triazolo[4,5-c]pyridine] | 28.5
C[C@H]1Cc2c(nnn2-c2cnccn2)CN1C(=O)c1cccc(C(F)(F)F)c1Cl (single isomer, unassigned) [Example 212, (6S*)-5-{[2-Chloro-3-(trifluoromethyl)phenyl]carbonyl}-6-methyl-1-pyrazin-2-yl-4,5,6,7-tetrahydro-1H-[1,2,3]triazolo[4,5-c]pyridine] | 17.4
C[C@@H]1Cc2c(nnn2-c2ncc(F)cn2)CN1C(=O)c1ccc(F)c(Cl)c1Cl (single isomer, unassigned) [Example 214, (6R*)-5-[(2,3-Dichloro-4-fluorophenyl)carbonyl]-1-(5-fluoropyrimidin-2-yl)-6-methyl-4,5,6,7-tetrahydro-1H-[1,2,3]triazolo[4,5-c]pyridine] | 8.2
C[C@H]1Cc2c(nnn2-c2ncc(F)cn2)CN1C(=O)c1ccc(F)c(Cl)c1Cl (single isomer, unassigned) [Example 215, (6S*)-5-[(2,3-Dichloro-4-fluorophenyl)carbonyl]-1-(5-fluoropyrimidin-2-yl)-6-methyl-4,5,6,7-tetrahydro-1H-[1,2,3]triazolo[4,5-c]pyridine] | 2.7
C[C@@H]1Cc2c(nnn2-c2ncc(F)cn2)CN1C(=O)c1ccc(Cl)c(F)c1Cl (single isomer, unassigned) [Example 217, (6R*)-5-[(2,4-Dichloro-3-fluorophenyl)carbonyl]-1-(5-fluoropyrimidin-2-yl)-6-methyl-4,5,6,7-tetrahydro-1H-[1,2,3]triazolo[4,5-c]pyridine] | 60.8
C[C@H]1c2n[nH]c(-c3ncc(F)cn3)c2CCN1C(=O)c1cccc(C(F)(F)F)c1Cl (single isomer, unassigned) [Example 224, (S*)-(2-chloro-3-(trifluoromethyl)phenyl)(3-(5-fluoropyrimidin-2-yl)-7-methyl-4,5-dihydro-2H-pyrazolo[3,4-c]pyridin-6(7H)-yl)methanone] | 103.3
Cc1cccc(-n2nnc3c2CCN(C(=O)c2cccc(C(F)(F)F)c2Cl)[C@@H]3C)n1 (single isomer, unassigned) [Example 226, (R*)-(2-chloro-3-(trifluoromethyl)phenyl)(4-methyl-1-(6-methylpyridin-2-yl)-6,7-dihydro-1H-[1,2,3]triazolo[4,5-c]pyridin-5(4H)-yl)methanone] | 58.0
C[C@H]1Cc2c(nnn2-c2ncc(F)cn2)CN1C(=O)c1ccnc(C(F)(F)F)c1F (single isomer, unassigned) [Example 228, (S*)-(3-fluoro-2-(trifluoromethyl)pyridin-4-yl)(1-(5-fluoropyrimidin-2-yl)-6-methyl-6,7-dihydro-1H-[1,2,3]triazolo[4,5-c]pyridin-5(4H)-yl)methanone] | 0.1
C[C@H]1c2nnn(-c3ncc(F)cn3)c2CCN1C(=O)c1ccnc(C(F)(F)F)c1F (single isomer, unassigned) [Example 229, (S*)-(3-fluoro-2-(trifluoromethyl)pyridin-4-yl)(1-(5-fluoropyrimidin-2-yl)-4-methyl-6,7-dihydro-1H-[1,2,3]triazolo[4,5-c]pyridin-5(4H)-yl)methanone] | 116.4
Cc1ccc(-n2nnc3c2CCN(C(=O)c2cccc(C(F)(F)F)c2Cl)[C@H]3C)nc1 (single isomer, unassigned) [Example 239, (S*)-(2-chloro-3-(trifluoromethyl)phenyl)(4-methyl-1-(5-methylpyridin-2-yl)-6,7-dihydro-1H-[1,2,3]triazolo[4,5-c]pyridin-5(4H)-yl)methanone] | 86.9
COCCn1ccc(-n2nnc3c2CCN(C(=O)c2cccc(C(F)(F)F)c2Cl)[C@@H]3C)n1 (single isomer, unassigned) [Example 248, (R*)-(2-Chloro-3-(trifluoromethyl)phenyl)(1-(1-(2-methoxyethyl)-1H-pyrazol-3-yl)-4-methyl-6,7-dihydro-1H-[1,2,3]triazolo[4,5-c]pyridin-5(4H)-yl)methanone] | 74.3
COCCn1ccc(-n2nnc3c2CCN(C(=O)c2cccc(C(F)(F)F)c2Cl)[C@H]3C)n1 (single isomer, unassigned) [Example 249, (S*)-(2-Chloro-3-(trifluoromethyl)phenyl)(1-(1-(2-methoxyethyl)-1H-pyrazol-3-yl)-4-methyl-6,7-dihydro-1H-[1,2,3]triazolo[4,5-c]pyridin-5(4H)-yl)methanone] | 5.1
C[C@H]1c2nnn(-c3ncccn3)c2CCN1C(=O)c1cccc(C(F)(F)F)c1F (single isomer, unassigned) [Example 270, (S*)-(2-fluoro-3-(trifluoromethyl)phenyl)(4-methyl-1-(pyrimidin-2-yl)-6,7-dihydro-1H-[1,2,3]triazolo[4,5-c]pyridin-5(4H)-yl)methanone] | 98.5
Cc1cccnc1-n1nnc2c1CCN(C(=O)c1cccc(C(F)(F)F)c1Cl)[C@@H]2C (single isomer, unassigned) [Example 291, (R*)-(2-chloro-3-(trifluoromethyl)phenyl)(4-methyl-1-(3-methylpyridin-2-yl)-6,7-dihydro-1H-[1,2,3]triazolo[4,5-c]pyridin-5(4H)-yl)methanone] | −7.1
Cc1cccnc1-n1nnc2c1CCN(C(=O)c1cccc(C(F)(F)F)c1Cl)[C@H]2C (single isomer, unassigned) [Example 292, (S*)-(2-chloro-3-(trifluoromethyl)phenyl)(4-methyl-1-(3-methylpyridin-2-yl)-6,7-dihydro-1H-[1,2,3]triazolo[4,5-c]pyridin-5(4H)-yl)methanone] | 36.7
Cc1nc(-n2nnc3c2CCN(C(=O)c2cccc(C(F)(F)F)c2Cl)C3C)ncc1F (single isomer, unassigned) [Example 306, (S*)-(2-chloro-3-(trifluoromethyl)phenyl)(1-(5-fluoro-4-methylpyrimidin-2-yl)-4-methyl-6,7-dihydro-1H-[1,2,3]triazolo[4,5-c]pyridin-5(4H)-yl)methanone] | 2.5
C[C@H]1c2ncn(-c3ccc(F)cn3)c2CCN1C(=O)c1cccc(C(F)(F)F)c1Cl (stereo in doubt) [Example 41] | 40.5
CC1c2ncn(-c3ccc(F)cn3)c2CCN1C(=O)c1cccc(C(F)(F)F)c1Cl (stereo not shown) [Example 11, (2-Chloro-3-(trifluoromethyl)phenyl)(1-(5-fluoropyridin-2-yl)-4-methyl-6,7-dihydro-1H-imidazo[4,5-c]pyridin-5(4H)-yl)methanone] | 25.2
